Source: ChEMBL document CHEMBL3112589, “Structure-activity relationships of diamine inhibitors of cytochrome P450 (CYP) 3A as novel pharmacoenhancers, part I: core region” (Bioorg Med Chem Lett, 2014)

Experiments:
Protease = Protease (Human immunodeficiency virus 1, UniProt Q9YQ12); assay: Inhibition of HIV-1 protease
[1] = test system: Human immunodeficiency virus 1; assay: Antiviral activity against HIV1 by cell based assay; type: functional, organism-based
Cytochrome P450 2C9 = Cytochrome P450 2C9 (Homo sapiens, UniProt P11712); assay: Inhibition of human CYP2C9
Cytochrome P450 2D6 = Cytochrome P450 2D6 (Homo sapiens, UniProt P10635); assay: Inhibition of human CYP2D6
Cytochrome P450 1A2 = target: T1, Cytochrome P450 1A2 (Homo sapiens, UniProt P05177); assay: Inhibition of human CYP1A2
T1 sequence (P05177 whole entry): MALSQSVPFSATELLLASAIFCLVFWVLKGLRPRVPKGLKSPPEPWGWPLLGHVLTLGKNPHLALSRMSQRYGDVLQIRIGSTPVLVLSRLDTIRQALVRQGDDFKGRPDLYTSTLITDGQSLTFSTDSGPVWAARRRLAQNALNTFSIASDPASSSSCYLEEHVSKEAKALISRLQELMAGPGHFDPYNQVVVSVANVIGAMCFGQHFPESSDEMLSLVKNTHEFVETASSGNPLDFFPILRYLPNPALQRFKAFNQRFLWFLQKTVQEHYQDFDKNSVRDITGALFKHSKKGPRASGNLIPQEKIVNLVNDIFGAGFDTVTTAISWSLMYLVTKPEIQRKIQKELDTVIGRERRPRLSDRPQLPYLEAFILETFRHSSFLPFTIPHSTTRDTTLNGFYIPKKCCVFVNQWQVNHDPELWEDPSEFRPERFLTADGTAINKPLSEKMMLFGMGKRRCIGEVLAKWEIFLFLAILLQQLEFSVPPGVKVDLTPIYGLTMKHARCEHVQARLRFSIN

Cytochrome P450 2C19 = Cytochrome P450 2C19 (Homo sapiens, UniProt P33261); assay: Inhibition of human CYP2C19
Cytochrome P450 3A4 = Cytochrome P450 3A4 (Homo sapiens, UniProt P08684); assay: Inhibition of human CYP3A4-mediated midazolam 1'-hydroxylase activity
Cytochrome P450 3A4, sequence (P08684 whole entry): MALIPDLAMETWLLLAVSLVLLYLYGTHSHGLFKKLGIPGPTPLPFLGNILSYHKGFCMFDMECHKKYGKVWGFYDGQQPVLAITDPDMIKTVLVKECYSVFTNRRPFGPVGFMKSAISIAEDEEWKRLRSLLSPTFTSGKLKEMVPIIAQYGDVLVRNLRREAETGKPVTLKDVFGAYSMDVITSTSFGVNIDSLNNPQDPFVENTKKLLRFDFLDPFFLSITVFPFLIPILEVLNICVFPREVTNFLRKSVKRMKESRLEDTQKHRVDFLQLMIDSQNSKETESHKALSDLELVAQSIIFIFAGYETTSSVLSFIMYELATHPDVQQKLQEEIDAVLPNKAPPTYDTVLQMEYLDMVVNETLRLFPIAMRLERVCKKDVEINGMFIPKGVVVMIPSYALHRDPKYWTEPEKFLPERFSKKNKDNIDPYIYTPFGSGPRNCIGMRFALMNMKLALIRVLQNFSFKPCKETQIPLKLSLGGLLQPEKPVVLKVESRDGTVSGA

Cytochrome P450 2C19, sequence (P33261 whole entry): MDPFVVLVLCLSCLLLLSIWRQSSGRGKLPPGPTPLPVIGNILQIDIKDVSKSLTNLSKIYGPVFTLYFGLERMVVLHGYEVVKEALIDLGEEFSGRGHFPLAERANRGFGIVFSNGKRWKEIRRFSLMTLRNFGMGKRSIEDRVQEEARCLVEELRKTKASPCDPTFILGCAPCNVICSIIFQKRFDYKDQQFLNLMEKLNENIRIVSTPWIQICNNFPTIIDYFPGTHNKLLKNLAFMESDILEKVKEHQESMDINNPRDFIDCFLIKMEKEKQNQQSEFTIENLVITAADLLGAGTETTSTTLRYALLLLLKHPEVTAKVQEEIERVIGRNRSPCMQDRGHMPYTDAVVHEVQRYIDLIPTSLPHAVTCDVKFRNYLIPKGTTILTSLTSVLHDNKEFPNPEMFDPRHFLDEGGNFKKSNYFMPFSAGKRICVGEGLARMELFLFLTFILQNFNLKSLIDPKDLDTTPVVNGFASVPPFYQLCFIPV
Cytochrome P450 2C9, sequence (P11712 whole entry): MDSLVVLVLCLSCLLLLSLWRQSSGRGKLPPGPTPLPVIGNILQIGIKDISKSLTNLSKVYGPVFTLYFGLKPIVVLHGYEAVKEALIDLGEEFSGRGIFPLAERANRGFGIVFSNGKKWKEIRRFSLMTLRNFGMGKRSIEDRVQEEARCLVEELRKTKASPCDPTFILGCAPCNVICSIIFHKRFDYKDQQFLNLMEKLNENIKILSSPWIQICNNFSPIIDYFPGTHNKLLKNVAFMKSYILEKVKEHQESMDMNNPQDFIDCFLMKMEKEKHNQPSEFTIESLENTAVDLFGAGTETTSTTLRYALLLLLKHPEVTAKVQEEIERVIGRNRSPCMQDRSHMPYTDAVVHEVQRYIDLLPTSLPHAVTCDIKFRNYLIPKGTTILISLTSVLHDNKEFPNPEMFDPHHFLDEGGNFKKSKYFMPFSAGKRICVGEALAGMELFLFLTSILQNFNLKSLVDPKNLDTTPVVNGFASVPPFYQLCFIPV
Protease, sequence (Q9YQ12 whole entry): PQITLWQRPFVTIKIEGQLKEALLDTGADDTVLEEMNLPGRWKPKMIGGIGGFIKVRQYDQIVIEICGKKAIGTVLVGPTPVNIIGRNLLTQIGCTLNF
Cytochrome P450 2D6, sequence (P10635 whole entry): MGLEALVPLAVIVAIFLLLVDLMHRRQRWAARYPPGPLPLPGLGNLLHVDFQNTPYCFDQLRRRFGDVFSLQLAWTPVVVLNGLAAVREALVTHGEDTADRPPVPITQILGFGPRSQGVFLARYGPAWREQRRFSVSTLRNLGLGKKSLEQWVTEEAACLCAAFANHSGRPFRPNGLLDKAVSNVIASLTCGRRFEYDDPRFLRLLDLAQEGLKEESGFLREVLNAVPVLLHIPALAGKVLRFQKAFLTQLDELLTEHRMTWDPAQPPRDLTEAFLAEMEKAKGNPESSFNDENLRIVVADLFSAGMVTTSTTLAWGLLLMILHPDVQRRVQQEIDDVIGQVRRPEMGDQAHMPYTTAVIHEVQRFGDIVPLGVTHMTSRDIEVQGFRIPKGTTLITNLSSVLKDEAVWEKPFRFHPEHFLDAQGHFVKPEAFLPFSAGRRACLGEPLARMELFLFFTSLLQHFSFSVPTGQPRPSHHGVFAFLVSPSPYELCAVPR

Structure (SMILES) | IC50 (Protease) | EC50 [1] | IC50 (Cytochrome P450 2C9) | IC50 (Cytochrome P450 2D6) | IC50 (Cytochrome P450 1A2) | IC50 (Cytochrome P450 2C19) | IC50 (Cytochrome P450 3A4)
CC(C)CN(CC[C@H](Cc1ccccc1)NC(=O)[C@H](CCN1CCOCC1)NC(=O)N(C)Cc1csc(C(C)C)n1)C(=O)OCc1cncs1 | > 30 µM | > 30 µM |  |  |  |  | 
CC(C)c1nc(CN(C)C(=O)N[C@@H](CCN2CCOCC2)C(=O)N[C@H](CCN(Cc2ccccc2)C(=O)OCc2cncs2)Cc2ccccc2)cs1 | > 30 µM | > 30 µM | 8.1 µM | 1300 nM | > 25 µM | 6.7 µM | 
CC(C)c1nc(CN(C)C(=O)N[C@@H](CCN2CCOCC2)C(=O)N[C@H](CCN(Cc2ccccc2Cl)C(=O)OCc2cncs2)Cc2ccccc2)cs1 | > 30 µM | > 30 µM |  |  |  |  | 
CC(C)c1nc(CN(C)C(=O)N[C@H](C(=O)N2CCC(NC(=O)OCc3cncs3)CC2)C(C)C)cs1 |  | 4 µM |  |  |  |  | 
CC(C)c1nc(CN(C)C(=O)N[C@@H](CCN2CCOCC2)C(=O)NC(Cc2ccccc2)CN(Cc2ccccc2)C(=O)OCc2cncs2)cs1 (stereo not given in full) | > 30 µM | > 30 µM |  |  |  |  | 
CC(C)c1nc(CN(C)C(=O)N[C@@H](CCN2CCOCC2)C(=O)N[C@H](CCN(Cc2ccc(Cl)cc2)C(=O)OCc2cncs2)Cc2ccccc2)cs1 | > 30 µM | > 30 µM |  |  |  |  | 
CC(C)c1nc(CN(C)C(=O)N[C@H](C(=O)N2CCN(C(=O)OCc3cncs3)CC2)C(C)C)cs1 |  | > 30 µM |  |  |  |  | 1400 nM
CC(C)c1nc(CN(C)C(=O)N[C@H](C(=O)N[C@H](CCN(Cc2ccccc2)NC(=O)OCc2cncs2)Cc2ccccc2)C(C)C)cs1 | 0.03 µM | 0.38 µM |  |  |  |  | 
CC(C)c1nc(CN(C)C(=O)N[C@H](C(=O)N[C@@H](Cc2ccccc2)[C@H](Cc2ccccc2)NC(=O)OCc2cncs2)C(C)C)cs1 | > 30 µM | > 30 µM | > 25 µM | 2300 nM | 22.9 µM | 8.7 µM | 
CC[C@@H](CC[C@H](CC)NC(=O)[C@@H](NC(=O)N(C)Cc1csc(C(C)C)n1)C(C)C)NC(=O)OCc1cncs1 | > 30 µM | > 30 µM |  |  |  |  | 
CC(C)c1nc(CN(C)C(=O)N[C@H](C(=O)NCCCCNC(=O)OCc2cncs2)C(C)C)cs1 |  | > 30 µM |  |  |  |  | 
CC(C)c1nc(CN(C)C(=O)N[C@H](C(=O)N[C@@H](C)CC[C@H](C)NC(=O)OCc2cncs2)C(C)C)cs1 | > 30 µM | > 30 µM |  |  |  |  | 
CC(C)c1nc(CN(C)C(=O)N[C@H](C(=O)NCCNC(=O)OCc2cncs2)C(C)C)cs1 |  | > 30 µM |  |  |  |  | 
CC(C)c1nc(CN(C)C(=O)N[C@H](C(=O)NC2CCN(C(=O)OCc3cncs3)CC2)C(C)C)cs1 |  | 9 µM |  |  |  |  | 1670 nM
CC(C)c1nc(CN(C)C(=O)N[C@H](C(=O)N(CCCCN(Cc2ccccc2)C(=O)OCc2cncs2)Cc2ccccc2)C(C)C)cs1 | 22.7 µM | > 30 µM | 3.4 µM | 1100 nM | > 25 µM | 1.5 µM | 240 nM
CC(C)c1nc(CN(C)C(=O)N[C@H](C(=O)N(CCCN(Cc2ccccc2)C(=O)OCc2cncs2)Cc2ccccc2)C(C)C)cs1 | 21 µM | > 30 µM |  |  |  |  | 300 nM
CC(C)c1nc(CN(C)C(=O)N[C@H](C(=O)N[C@@H](Cc2ccccc2)C[C@H](O)[C@H](Cc2ccccc2)NC(=O)OCc2cncs2)C(C)C)cs1 [RITONAVIR] |  | 0.015 µM |  |  |  |  | 
CC(C)c1nc(CN(C)C(=O)N[C@H](C(=O)N[C@@H](CC[C@@H](Cc2ccccc2)NC(=O)OCc2cncs2)Cc2ccccc2)C(C)C)cs1 | > 30 µM | > 30 µM | 13.8 µM | 400 nM | 10 µM | > 5 µM | 
CC(C)CN(CC[C@H](Cc1ccccc1)NC(=O)OCc1cncs1)C(=O)[C@H](CCN1CCOCC1)NC(=O)N(C)Cc1csc(C(C)C)n1 | > 30 µM | > 30 µM | > 25 µM | 8100 nM | > 25 µM | > 25 µM | 
CCC[C@@H](CC[C@H](Cc1ccccc1)NC(=O)OCc1cncs1)NC(=O)[C@@H](NC(=O)N(C)Cc1csc(C(C)C)n1)C(C)C |  | 0.55 µM |  |  |  |  | 
CC(C)c1nc(CN(C)C(=O)N[C@H](C(=O)N[C@H](CC[C@H](Cc2ccccc2)N(C)C(=O)OCc2cncs2)Cc2ccccc2)C(C)C)cs1 |  | 0.87 µM |  |  |  |  | 
CC(C)c1nc(CN(C)C(=O)N[C@H](C(=O)N[C@@H](Cc2ccccc2)[C@H]2OC(C)(C)O[C@@H]2[C@H](Cc2ccccc2)NC(=O)OCc2cncs2)C(C)C)cs1 |  | > 30 µM |  |  |  |  | 310 nM
CC(C)c1nc(CN(C)C(=O)N[C@H](C(=O)N[C@H](CCNNC(=O)OCc2cncs2)Cc2ccccc2)C(C)C)cs1 | 8.8 µM | > 30 µM |  |  |  |  | 
CC(C)c1nc(CN(C)C(=O)N[C@H](C(=O)N[C@H](CC(=O)[C@H](Cc2ccccc2)NC(=O)OCc2cncs2)Cc2ccccc2)C(C)C)cs1 |  | 1.65 µM |  |  |  |  | 
CC(C)c1nc(CN(C)C(=O)N[C@H](C(=O)N[C@H](CCN(Cc2ccccc2)C(=O)OCc2cncs2)Cc2ccccc2)C(C)C)cs1 |  | > 30 µM | > 25 µM | 900 nM | > 25 µM | > 25 µM | 320 nM
CC(C)c1nc(CN(C)C(=O)N[C@H](C(=O)N[C@H](/C=C/[C@H](Cc2ccccc2)NC(=O)OCc2cncs2)Cc2ccccc2)C(C)C)cs1 |  | 11 µM |  |  |  |  | 150 nM
CC(C)c1nc(CN(C)C(=O)N[C@H](C(=O)NCCCNC(=O)OCc2cncs2)C(C)C)cs1 |  | > 30 µM |  |  |  |  | 
CC(C)c1nc(CN(C)C(=O)N[C@H](C(=O)N(C)[C@H](CC[C@H](Cc2ccccc2)NC(=O)OCc2cncs2)Cc2ccccc2)C(C)C)cs1 |  | 0.73 µM |  |  |  |  | 
CC(C)c1nc(CN(C)C(=O)N[C@H](C(=O)N[C@H](CC[C@H](Cc2ccccc2)NC(=O)OCc2cncs2)Cc2ccccc2)C(C)C)cs1 | 0.005 µM | 0.29 µM | 6.8 µM | 2900 nM | > 25 µM | 9.3 µM | 
CCC[C@@H](CC[C@H](Cc1ccccc1)NC(=O)[C@@H](NC(=O)N(C)Cc1csc(C(C)C)n1)C(C)C)NC(=O)OCc1cncs1 |  | 1.7 µM |  |  |  |  | 
